Measured values reported in PubChem BioAssay (NCI).
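A five-concentration, 48-hour dose response in 96-well plates underlies each endpoint, interpolated linearly between surrounding concentrations. TGI: concentration producing complete growth inhibition.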

The compounds below were run on HL-60(TB) leukemia (assay: NCI-60 cell line screen, 48 h).

| SMILES | TGI [µM] |
| --- | --- |
| CC(=O)OCC1OC(n2c(-c3ccccc3)c(N=Nc3ccc(C)cc3)c(C)c(C#N)c2=S)C(OC(C)=O)C(OC(C)=O)C1OC(C)=O (stereo not given) | > 100 |
| CN1CCC2(CC1)C(=NC1CCCCC1)NC(=O)N2c1ccccc1 | > 100 |
| O=C(Nc1ccc(Cl)cc1)c1cc(S(=O)(=O)Nc2n[nH]c(=O)n2-c2ccccc2)c(S)cc1Cl | > 100 |
| Cc1csc(-n2c(C)nc3cc(Cl)ccc3c2=O)n1 | > 100 |

What follows are compounds tested on HT29 colon (assay: NCI-60 cell line screen, 48 h).

| SMILES | TGI [µM] |
| --- | --- |
| O=C1CC(c2ccccc2)S(=O)c2ccccc2N1 (stereo not given) | > 100 |
| CC1(C)CC(=O)C2=C(C1)OC1(CC2c2ccc(Cl)cc2)CC(c2ccc(Cl)cc2)C2=C(CC(C)(C)CC2=O)O1 (stereo not given) | > 100 |
| O=C(O)c1ccc(N/C(=C(/C(Cl)=C(Cl)Cl)[N+](=O)[O-])n2nnc3ccccc32)cc1 | > 100 |
| O=c1c2ccccc2nc(-c2ccccc2)n1NC(=S)Nc1cccc(Cl)c1 | > 100 |
| CCn1c2ccccc2c2cc(Nc3cc(C)[nH]c(=O)n3)ccc21 | > 100 |
| C(#Cc1ccccc1)SC1=C(c2ccccc2)S/C(=C(\SC#Cc2ccccc2)c2ccccc2)S1 | > 100 |
| COC(=O)c1cc(/C=C\c2cc(OC)ccc2OC)ccc1OC | > 100 |
| CCOC(=O)C(C(=O)COC(C)(C)C)[C@@H]1C=C[C@H](OC(C)=O)C1 (stereo not given in full) | > 100 |
| CCOC(=O)CC(NC(=O)c1ccc(N=NN(C)C)cc1)C(=O)OCC (stereo not given) | > 100 |
| CN(C)CN(C)c1nc(N(C)C)nc(N(C)CN(C)C)n1 | > 100 |
| O=C(Cc1ccccc1)NN1C(=O)/C(=C\c2ccccc2O)SC1=Nc1ccccc1 | > 100 |
| COc1ccc2c(c1)CCC/C2=N\NS(=O)(=O)c1c(C)cc(C)cc1C | 43.5 |
| CSCCCNC(=O)[C@H](CSC)NC(=O)c1csc(CCNC(=O)[C@@H](NSc2ccccc2[N+](=O)[O-])C(C)O)n1 (stereo not given in full) | > 100 |
| CN(C)/C=C/C=C(/C=N/S(=O)(=O)C(F)(F)F)C1C=CN(S(=O)(=O)C(F)(F)F)C=C1 | 75.2 |
| Cc1ccc(S(=O)(=O)Nn2c(O)c(C#N)c(-c3ccc([N+](=O)[O-])cc3)c(C#N)c2=O)cc1 | > 100 |
| CC(C)[Si](OCC1CC(C#N)OC(C)(C)O1)(C(C)C)C(C)C (stereo not given) | 37.5 |
| CC(=O)Nc1ccc(-c2nnc(SCC(=O)Nc3ccc(Cl)cc3)o2)cc1 | 23.2 |
| Cc1ccccc1NC(=O)Cc1csc(N=Nc2c(O)[nH]c3ccccc23)n1 | > 100 |
| FC(F)(F)c1ccc2nc(Sc3ccc4ccccc4c3)cnc2c1 | > 100 |
| COc1ccc2c([nH]c3c(O)c(-c4c(C)cc5c([nH]c6c(CC=C(C)C)c(OC)ccc65)c4O)c(C)cc32)c1CC=C(C)C | > 100 |
| COc1ccc(-n2cnc3c(NC(Cc4ccccc4)C(=O)O)ncnc32)cc1 (stereo not given) | > 100 |
| CC(=O)OCC1OC(n2c(-c3ccccc3)c(N=Nc3ccc(C)cc3)c(C)c(C#N)c2=S)C(OC(C)=O)C(OC(C)=O)C1OC(C)=O (stereo not given) | > 100 |
| CN1CCC2(CC1)C(=NC1CCCCC1)NC(=O)N2c1ccccc1 | > 100 |
| CC(C)=NOC(=O)Nc1cccc2c1OCO2 | > 100 |
| Cc1ccc(/C=C2/N=C(N/N=C\c3ccccc3)NC2=O)cc1 | > 100 |
| O=C(Nc1ccc(Cl)cc1)c1cc(S(=O)(=O)Nc2n[nH]c(=O)n2-c2ccccc2)c(S)cc1Cl | > 100 |
| Cc1csc(-n2c(C)nc3cc(Cl)ccc3c2=O)n1 | > 100 |

These compounds were tested on MDA-N (assay: NCI-60 cell line screen, 48 h).

| SMILES | TGI [µM] |
| --- | --- |
| O=C(O)c1ccc(N/C(=C(/C(Cl)=C(Cl)Cl)[N+](=O)[O-])n2nnc3ccccc32)cc1 | > 100 |
| CCn1c2ccccc2c2cc(Nc3cc(C)[nH]c(=O)n3)ccc21 | > 100 |
| C(#Cc1ccccc1)SC1=C(c2ccccc2)S/C(=C(\SC#Cc2ccccc2)c2ccccc2)S1 | > 100 |
| COC(=O)c1cc(/C=C\c2cc(OC)ccc2OC)ccc1OC | > 100 |
| CCOC(=O)C(C(=O)COC(C)(C)C)[C@@H]1C=C[C@H](OC(C)=O)C1 (stereo not given in full) | > 100 |
| O=C(Cc1ccccc1)NN1C(=O)/C(=C\c2ccccc2O)SC1=Nc1ccccc1 | > 100 |
| COc1ccc2c(c1)CCC/C2=N\NS(=O)(=O)c1c(C)cc(C)cc1C | > 100 |
| CSCCCNC(=O)[C@H](CSC)NC(=O)c1csc(CCNC(=O)[C@@H](NSc2ccccc2[N+](=O)[O-])C(C)O)n1 (stereo not given in full) | > 100 |
| CN(C)/C=C/C=C(/C=N/S(=O)(=O)C(F)(F)F)C1C=CN(S(=O)(=O)C(F)(F)F)C=C1 | > 100 |
| Cc1ccc(S(=O)(=O)Nn2c(O)c(C#N)c(-c3ccc([N+](=O)[O-])cc3)c(C#N)c2=O)cc1 | > 100 |
| Cc1ccccc1NC(=O)Cc1csc(N=Nc2c(O)[nH]c3ccccc23)n1 | > 100 |
| FC(F)(F)c1ccc2nc(Sc3ccc4ccccc4c3)cnc2c1 | > 100 |
| COc1ccc(-n2cnc3c(NC(Cc4ccccc4)C(=O)O)ncnc32)cc1 (stereo not given) | > 100 |
| CC(=O)OCC1OC(n2c(-c3ccccc3)c(N=Nc3ccc(C)cc3)c(C)c(C#N)c2=S)C(OC(C)=O)C(OC(C)=O)C1OC(C)=O (stereo not given) | 74.9 |
| Cc1ccc(/C=C2/N=C(N/N=C\c3ccccc3)NC2=O)cc1 | 88.2 |
| Cc1csc(-n2c(C)nc3cc(Cl)ccc3c2=O)n1 | > 100 |

These compounds were tested on MOLT-4 leukemia (assay: NCI-60 cell line screen, 48 h).

| SMILES | TGI [µM] |
| --- | --- |
| O=C1CC(c2ccccc2)S(=O)c2ccccc2N1 (stereo not given) | > 100 |
| CC1(C)CC(=O)C2=C(C1)OC1(CC2c2ccc(Cl)cc2)CC(c2ccc(Cl)cc2)C2=C(CC(C)(C)CC2=O)O1 (stereo not given) | 13.6 |
| O=C(O)c1ccc(N/C(=C(/C(Cl)=C(Cl)Cl)[N+](=O)[O-])n2nnc3ccccc32)cc1 | > 100 |
| O=c1c2ccccc2nc(-c2ccccc2)n1NC(=S)Nc1cccc(Cl)c1 | > 100 |
| C(#Cc1ccccc1)SC1=C(c2ccccc2)S/C(=C(\SC#Cc2ccccc2)c2ccccc2)S1 | > 100 |
| COC(=O)c1cc(/C=C\c2cc(OC)ccc2OC)ccc1OC | 41.7 |
| CCOC(=O)C(C(=O)COC(C)(C)C)[C@@H]1C=C[C@H](OC(C)=O)C1 (stereo not given in full) | > 100 |
| CCOC(=O)CC(NC(=O)c1ccc(N=NN(C)C)cc1)C(=O)OCC (stereo not given) | > 100 |
